According to ChEMBL document CHEMBL1157662, “Antimalarial and antileishmanial activities of histone deacetylase inhibitors with triazole-linked cap group” (Bioorg Med Chem, 2010):
Values after ≈ are worked out from the molar mass of the structure shown. Active and inactive are the calls of the source. The rule behind the calls is not given here.

Key:
Plasmodium falciparum [1] = experiment: microbe, parasite or virus in culture; settings: D6, Vero, 72 h
Description: Antimalarial activity against chloroquine-sensitive Plasmodium falciparum D6 infected in African green monkey (Cercopithecus aethiops) Vero cells assessed as parasite LDH activity after 72 hrs by Malstat reagent method

Plasmodium falciparum [2] = experiment: microbe, parasite or virus in culture; format: functional, organism-based, W2, Vero; settings: Plasmodium falciparum, W2, Vero, 72 h; read-out: IC50
Description: Antimalarial activity against chloroquine-resistant Plasmodium falciparum W2 infected in African green monkey (Cercopithecus aethiops) Vero cells assessed as parasite LDH activity after 72 hrs by Malstat reagent method

Vero = experiment: Cytotoxicity against african green monkey Vero cells after 1 to 2 days by neutral red assay; format: ADME, cell-based, Chlorocebus sabaeus
[3] = Selectivity index, ratio of IC50 for african green monkey (Cercopithecus aethiops) Vero cells to IC50 for chloroquine-sensitive Plasmodium falciparum D6
Leishmania donovani [4] = experiment: Antileishmanial activity against Leishmania donovani promastigotes after 72 hrs by alamar blue assay; format: functional, organism-based
[5] = Selectivity index, ratio of IC50 for african green monkey (Cercopithecus aethiops) Vero cells to IC50 for chloroquine-resistant Plasmodium falciparum W2
Histone deacetylase = experiment: Inhibition of HDAC in human HeLa cell nuclear extracts after 15 mins by fluorescence assay; format: cell-based
Leishmania donovani [6] = system: Leishmania donovani
[7] = Chlorocebus sabaeus, Vero, read-out: IC50
[8] = Leishmania donovani, 72 h, read-out: IC50

| Structure (SMILES) | IC50 (Plasmodium falciparum [1]) [mg/L] | IC50 (Plasmodium falciparum [2]) [mg/L] | IC50 (Vero; [7]) [mg/L] | selectivity ratio [3] | IC90 (Leishmania donovani [4]; Leishmania donovani, 72 h) [mg/L] | IC50 (Leishmania donovani [4]; [8]) [mg/L] | selectivity ratio [5] | IC50 (Histone deacetylase) [µM] | IC50 (Vero; vero) | IC90 (Leishmania donovani [6]) | IC50 (Leishmania donovani [4]) |
| --- | --- | --- | --- | --- | --- | --- | --- | --- | --- | --- | --- |
| O=C(CCCCCn1cc(-c2ccccc2-c2ccccc2)nn1)NO | 2.1 (≈ 5.99 µM) | 2.6 (≈ 7.42 µM) | 2.7 (≈ 7.7 µM) | 1.3 | 38 (≈ 108 µM) | 13 (≈ 37.1 µM) | 1 |  |  |  |  |
| O=C(CCCCCCn1cc(-c2cccnc2)nn1)NO | 0.0755 (≈ 0.261 µM) | 0.081 (≈ 0.28 µM) | 3.78 (≈ 13.1 µM) | 50.1 | 40 (≈ 138 µM) | 15.5 (≈ 53.6 µM) | 46.7 | 0.3658 |  |  |  |
| O=C(CCCCCn1cc(-c2cccnc2)nn1)NO | 0.175 (≈ 0.636 µM) | 0.205 (≈ 0.745 µM) |  | > 27.2 | > 40 | 11.4 (≈ 41.6 µM) | > 23.2 |  | Non-toxic |  |  |
| O=C(CCCCCCCCn1cc(-c2ccccc2)nn1)NO | 2.65 (≈ 8.38 µM) | 2.75 (≈ 8.69 µM) | 3.35 (≈ 10.6 µM) | 1.9 | > 40 | 18.5 (≈ 58.5 µM) | 1.2 | 0.0554 |  |  |  |
| O=C(CCCCCCCn1cc(-c2ccccc2)nn1)NO | 0.645 (≈ 2.13 µM) | 0.695 (≈ 2.3 µM) |  | > 7.4 | > 40 | 17.8 (≈ 58.7 µM) | > 6.8 | 0.3636 | Non-toxic |  |  |
| CN(C)c1ccc(-c2cn(CCCCCCCCC(=O)NO)nn2)cc1 | 1.8 (≈ 5.01 µM) | 1.65 (≈ 4.59 µM) |  | > 2.6 | > 40 | 20.8 (≈ 57.7 µM) | > 2.9 | 0.5966 | Non-toxic |  |  |
| Cc1ccc(-c2cn(CCCCCC(=O)NO)nn2)cc1 | 0.13 (≈ 0.451 µM) | 0.14 (≈ 0.486 µM) | 3.85 (≈ 13.4 µM) | 29.6 | > 40 | 21.5 (≈ 74.6 µM) | 27.5 |  |  |  |  |
| O=C(CCCCCn1cc(-c2ccc(-c3ccncc3)cc2)nn1)NO | 0.0455 (≈ 0.129 µM) | 0.0475 (≈ 0.135 µM) |  | > 105 | > 40 | 28 (≈ 79.7 µM) | > 100 |  | Non-toxic |  |  |
| O=C(CCCCCCC(=O)Nc1ccccc1)NO [VORINOSTAT] |  |  |  |  | 57.9 (≈ 219 µM) |  |  |  |  |  |  |
| O=C(CCCn1cc(-c2ccccc2)nn1)NO | 2.85 (≈ 11.6 µM) | 3.5 (≈ 14.2 µM) |  | > 1.7 |  |  | > 1.4 |  | Non-toxic | inactive | Not Active |
| COc1cccc(OC)c1-c1cn(CCCCCC(=O)NO)nn1 | 2 (≈ 5.98 µM) | 2.6 (≈ 7.78 µM) |  | > 2.4 | > 40 | 40 (≈ 120 µM) | > 1.8 |  | Non-toxic |  |  |
| Cc1ccccc1-c1cn(CCCCCCC(=O)NO)nn1 | 0.12 (≈ 0.397 µM) | 0.14 (≈ 0.463 µM) | 0.71 (≈ 2.35 µM) | 5.9 | 40 (≈ 132 µM) | 26 (≈ 86 µM) | 5.1 | 0.0028 |  |  |  |
| CC(/C=C/C(=O)NO)=C\[C@@H](C)C(=O)c1ccc(N(C)C)cc1 [TRICHOSTATIN] | 0.0412 (≈ 0.136 µM) | 0.0495 (≈ 0.164 µM) | 0.095 (≈ 0.314 µM) |  | 20.5 (≈ 67.8 µM) | 1.37 (≈ 4.53 µM) |  |  |  |  |  |
| N=C(N)c1ccc(OCCCCCOc2ccc(C(=N)N)cc2)cc1 [PENTAMIDINE] |  |  |  |  | 1.8 (≈ 5.29 µM) |  |  |  |  |  |  |
| O=C(CCCCCCCn1cc(-c2cccnc2)nn1)NO | 1.49 (≈ 4.93 µM) | 1.69 (≈ 5.56 µM) |  | > 3.2 | > 40 | 19.8 (≈ 65.1 µM) | > 2.8 | 0.4258 | Non-toxic |  |  |
| Cc1ccccc1-c1cn(CCCCCC(=O)NO)nn1 | 1.25 (≈ 4.33 µM) | 1.95 (≈ 6.76 µM) | 3.3 (≈ 11.4 µM) | 2.6 | > 40 | 23 (≈ 79.8 µM) | 1.7 |  |  |  |  |
| CN(C)c1ccc(-c2cn(CCCCCCCC(=O)NO)nn2)cc1 | 0.175 (≈ 0.507 µM) | 0.185 (≈ 0.536 µM) | 0.97 (≈ 2.81 µM) | 3.8 | > 40 | 24 (≈ 69.5 µM) | 3.6 | 0.0159 |  |  |  |
| CN(C)c1ccc(-c2cn(CCCCCC(=O)NO)nn2)cc1 | 0.068 (≈ 0.214 µM) | 0.0385 (≈ 0.121 µM) | 3.4 (≈ 10.7 µM) | 50 | > 40 | 15.5 (≈ 48.8 µM) | 88.3 |  |  |  |  |
| COc1ccc(-c2cn(CCCCCC(=O)NO)nn2)cc1 | 0.13 (≈ 0.427 µM) | 0.09 (≈ 0.296 µM) | 2.35 (≈ 7.72 µM) | 18.1 | > 40 | 18.5 (≈ 60.8 µM) | 26.1 |  |  |  |  |
| C[C@@H]1[C@H](O)[C@@H](C)/C=C/C=C/C=C/C=C/C=C/C=C/C=C/[C@H](O[C@@H]2O[C@H](C)[C@@H](O)[C@H](N)[C@@H]2O)C[C@@H]2O[C@](O)(C[C@@H](O)C[C@@H](O)[C@H](O)CC[C@@H](O)C[C@@H](O)CC(=O)O[C@H]1C)C[C@H](O)[C@H]2C(=O)O [AMPHOTERICIN B] |  |  |  |  | 0.31 (≈ 0.335 µM) | 0.14 (≈ 0.152 µM) |  |  |  |  |  |
| O=C(CCCCCCCn1cc(-c2cccc(-c3ccccc3)c2)nn1)NO | 0.84 (≈ 2.22 µM) | 0.65 (≈ 1.72 µM) |  | > 5.6 | 40 (≈ 106 µM) | 20.2 (≈ 53.5 µM) | > 7.3 | 0.1089 | Non-toxic |  |  |
| O=C(CCCCCn1cc(-c2ccccn2)nn1)NO | 0.985 (≈ 3.58 µM) | 0.625 (≈ 2.27 µM) | 2.9 (≈ 10.5 µM) | 2.9 | > 40 | 20.5 (≈ 74.5 µM) | 4.6 |  |  |  |  |
| Cc1cccc(-c2cn(CCCCCC(=O)NO)nn2)c1 | 0.0795 (≈ 0.276 µM) | 0.068 (≈ 0.236 µM) | 2.7 (≈ 9.36 µM) | 34 | > 40 | 17 (≈ 59 µM) | 39.7 |  |  |  |  |
| O=C(CCCCCn1cc(-c2ccccc2)nn1)NO | 0.088 (≈ 0.321 µM) | 0.13 (≈ 0.474 µM) | 3.95 (≈ 14.4 µM) | 44.9 | > 40 | 17.5 (≈ 63.8 µM) | 30.4 |  |  |  |  |
| C[C@@H]1CC[C@H]2[C@@H](C)C(=O)O[C@@H]3O[C@@]4(C)CC[C@@H]1[C@]32OO4 [ARTEMISININ] | 0.004 (≈ 0.0142 µM) | 0.006 (≈ 0.0213 µM) |  |  |  |  |  |  |  |  |  |
| O=C(CCCCCCn1cc(-c2cccc(-c3ccccc3)c2)nn1)NO | 0.025 (≈ 0.0686 µM) | 0.025 (≈ 0.0686 µM) |  | > 190 | > 40 | 20.5 (≈ 56.2 µM) | > 190 |  | Non-toxic |  |  |
| COc1ccccc1-c1cn(CCCCCC(=O)NO)nn1 | 0.15 (≈ 0.493 µM) | 0.0975 (≈ 0.32 µM) | 2.3 (≈ 7.56 µM) | 15.3 | > 40 | 18.8 (≈ 61.6 µM) | 23.6 |  |  |  |  |
| O=C(CCCCCCCCn1cc(-c2cccc(-c3ccccc3)c2)nn1)NO | 3.35 (≈ 8.53 µM) | 3.2 (≈ 8.15 µM) |  | > 1.4 | 40 (≈ 102 µM) | 20 (≈ 51 µM) | > 1.5 | 0.1477 | Non-toxic |  |  |
| O=C(CCCCCn1cc(-c2ccncc2)nn1)NO | 0.195 (≈ 0.708 µM) | 0.133 (≈ 0.481 µM) |  | > 24.4 | > 40 | 17.8 (≈ 64.5 µM) | > 35.9 |  | Non-toxic |  |  |
